These results are taken from publication PMC7602804 (Nutrients, 2020).

“Also recorded” adds a separate entry of the source.

One series relates to Caco-2 monolayer. Description: Passive permeability (Papp) of mannitol across Caco-2 monolayers, membrane integrity. It counts as in vitro ADME, human. Particulars: D-[1-14C]-Mannitol 3.5 µM, 56.8 mCi/mmol, apical, with or without milk peptides; A-B; 2.5 h; HBSS + 10 mM HEPES; liquid scintillation counting; mean ± standard deviation of four or five inserts. How it is done:
The Caco-2 cells used for transport studies were seeded in polyethylene terephthalate culture inserts, with a pore size of 0.4 μm and a growth area of 0.33 cm^2 at a density of approximately 25,000 cells/insert. The Caco-2 cells were grown for three weeks on the porous membrane before they were used for transepithelial transport. The integrity of the monolayers was confirmed by measuring the TEER using a Millicell ERS-2 volt ohmmeter. Only Caco-2 monolayers with TEER values above 400 Ω cm^2 were used for the transport analysis.
(§1) Following the TEER value measurement, the Caco-2 and PBEC monolayers were gently washed twice with phosphate-buffered saline, and the transport medium (Hanks’ Balanced Salt solution supplemented with 10 mM of HEPES) was added to the apical and basolateral compartments. […] Basolateral samples were mixed with Ultima Gold liquid scintillation fluid (Perkin Elmer) and counted in a Tri-Carb 2810 TR scintillation counter (Perkin Elmer). The apparent permeability coefficient (Papp, cm/s) was determined as Papp = (dQ/dt)/(AC0) where dQ/dt is the steady state flux (cpm/s), A is the surface area of the cell culture insert membrane and C0 is the initial concentration in the apical compartment (cpm/mL). […]

Series [1] has as its system PBEC monolayer (BBB model). Briefly: Passive permeability (Papp) of mannitol across PBEC monolayers, membrane integrity. The format is in vitro ADME, porcine. Particulars: D-[1-14C]-Mannitol 3.5 µM, 56.8 mCi/mmol, apical, with or without milk peptides; A-B; 2.5 h; HBSS + 10 mM HEPES; liquid scintillation counting; mean ± standard deviation of four or five inserts. How it is done:
PBECs were grown until 70–80% confluency as described above and then passaged onto polyester culture inserts with a pore size of 0.4 μm and a growth area of 1.12 cm^2 (Costar, Corning, NY, USA) at a density of 1.1 × 10^5 cells/cm^2 in the PBEC growth medium. In the basolateral chamber, the medium consisted of 1 mL of PBEC growth medium and 0.5 mL of astrocyte conditioned medium. The medium was supplemented with differentiation factors: 550 nM of hydrocortisone, 250 μM of 8-(4-chlorophenylthio)adenosine-3′,5′-cyclic monophosphate (cAMP) and 17.5 μM of RO-201724 two days after seeding. The next day, the integrity of the PBEC monolayer was confirmed by measuring the TEER. […]
as §1

Series [2] is described as follows: Caco-2 monolayers in culture inserts; transport medium (Hanks' Balanced Salt solution supplemented with 10 mM of HEPES); basolateral medium analysed. Particulars: human, up to 2.5 h.
Series [3] can be described thus: primary porcine brain endothelial cell (PBEC) monolayers in culture inserts; transport medium (Hanks' Balanced Salt solution supplemented with 10 mM of HEPES); basolateral medium analysed. The following applies: up to 2.5 h.
In series [4] the test system is pepsin from porcine gastric mucosa, then trypsin and chymotrypsin from a bovine pancreas and elastase. Description: purified milk peptide mix: pepsin in 0.15 M NaCl pH 2.5 (1:100 w/w), then trypsin, chymotrypsin (1:100 w/w) and elastase (1:500 w/w) in 50 mM ammonium bicarbonate pH 7.6. The following applies: 37 °C, up to 60 min.
Series [5] shares this test system. Description: synthetic peptide: pepsin in 0.15 M NaCl pH 2.5 (1:100 w/w, 60 min), then trypsin, chymotrypsin (1:100 w/w) and elastase (1:500 w/w) in 50 mM ammonium bicarbonate pH 7.6. Particulars: 37 °C, up to 270 min.
Series [6] concerns pepsin, then trypsin, chymotrypsin and elastase. Briefly: In vitro simulation of gastrointestinal digestion. The format is in vitro ADME. Particulars: 1 mg/mL, pepsin 1:100 w/w, 0.15 M NaCl pH 2.5, 60 min, 37 °C, chymotrypsin 1:100 and elastase 1:500 w/w, 50 mM ammonium bicarbonate pH 7.6, 37 °C, sampled 5, 30, 60 and 270 min, MALDI-MS (osteopontin: SDS-PAGE). The protocol: The purified milk peptides and the synthesized PIGSENSEKTTMPLW and […] peptides were subjected to digestion, essentially as described in [5, 26] with few modifications. The peptides were dissolved in 0.15 M of NaCl with a pH of 2.5 at a concentration of 1 mg/mL and incubated with pepsin from porcine gastric mucosa in a 1:100 w/w enzyme to substrate ratio for 60 min at 37 °C. Before digestion with pancreatic proteases, the sample was lyophilized and washed twice in deionized water. Trypsin and chymotrypsin from a bovine pancreas (Worthington Biochemical Corporation, NJ, USA) (1:100 w/w) and elastase (Worthington) (1:500 w/w) were added in 50 mM of ammonium bicarbonate buffer (pH = 7.6) and the mixture was incubated for 60 min at 37 °C. In digests of the synthesized peptides, aliquots were sampled and analyzed after 5 min, 30 min, 60 min and 270 min incubation with the intestinal enzymes. Bovine milk osteopontin was purified as previously described and incubated with the digestive proteases to validate their activity. The digested milk peptides were separated by RP-HPLC on an Aeris C4 widepore column (Phenomenex, Værløse, Denmark) connected to a Shimadzu (Kyoto, Japan) HPLC system. The peptides were separated in 0.1% TFA (buffer A) and eluted with a gradient of 60% acetonitrile in 0.1% TFA (buffer B) at 40 °C. The gradient was developed over 59 min (0–5 min: 0% buffer B; 5–49 min: 0–98% buffer B; 49–59 min: 98% buffer B) at a flow rate of 0.85 mL/min. The peptides were detected by measuring the absorbance at 226 nm and analyzed by matrix-assisted laser desorption ionization time-of-flight mass spectrometry (MALDI-MS).
MALDI-MS was performed using a Bruker Autoflex III instrument (Bruker Daltonics, Bremen, Germany). The analysis was performed using a saturated solution of α-cyano-4-hydroxycinnamic acid. The instrument was operated in reflected positive ionization mode and calibrated in the mass range of 1000 to 3200 Da using a peptide calibration standard (Bruker Daltonics, Bremen, Germany). The theoretical peptide masses were calculated using the General Protein/Mass Analysis for Windows software (Lighthouse Data, Odense, Denmark).

For the molecule `OC[C@@H](O)[C@@H](O)[C@H](O)[C@H](O)CO` [D-[1-^14C]-Mannitol], the “Apparent permeability coefficient (Papp) of the Caco-2 monolayer” value with Caco-2 monolayer is reported as 9.45 ± 2 × 10^−7 cm s^−1. Further, in series [1], the “Papp for the BBB (PBEC monolayer)” value is given as 1.09 ± 0.14 × 10^−6 cm s^−1. With PIGSENSEKTTMPLW, the fragment found result in series [2] was “PIGSENSEKTTMP (Mox), 2.5 h; also recorded: PIGSENSEKTT, 2.5 h”; in series [3], “PIGSENSEKTTMP (Mox), 2.5 h; also recorded: PIGSENSEKTT, 2.5 h”. Also, the not cleaved result in series [4] was “peptide ion still observed after pepsin and pancreatic enzyme digestion”; in series [5], “ion corresponding to the peptide observed even after 270 min of digestion”. Turning to “Ac-YDGRGDSVVYGLRSKSKKFRR-NH2 [reference compound]”, the “Stability of the synthetic peptide / control in simulated gastrointestinal digestion” value in series [6] was “cleaved after 5 min incubation with the proteases”.

For “osteopontin: bovine milk osteopontin, purified, incubated with the digestive proteases to validate their activity [reference compound]”, in series [6], the “Stability of the synthetic peptide / control in simulated gastrointestinal digestion” value is “cleaved by all the proteases”. Take “YDGRGDSVVYGLRSKSKKFRR (N-terminally acetylated and amidated at the C terminal)”: in series [5], the fragment found entry is reported as “YDGRGDSVVY, 5 min”.
